Reference: article PMC3889466 (Journal of medicinal chemistry, 2013)
Read-outs that look alike come from different tables or passages of the source.

Experiments:
[1] = tested on: A/HK/7/87; assay: microbe, parasite or virus in culture; assay type: cell-based, influenza A virus; details: for EC90: Influenza A virus, MDCK, 24 h, read-out: Activity against A/HK/7/87 EC90
[2] = tested on: MDCK cells
[3] = tested on: Influenza A/H1N1 (A/PR/8/34); assay type: cell-based, influenza A virus
[4] = tested on: MDCK cells; remark: listed apart in the source
[5] = biological target: A/M2 wt (Influenza A virus, UniProt P0DOF5); details: cited from earlier work
Sequence of A/M2 wt (P0DOF5 whole entry): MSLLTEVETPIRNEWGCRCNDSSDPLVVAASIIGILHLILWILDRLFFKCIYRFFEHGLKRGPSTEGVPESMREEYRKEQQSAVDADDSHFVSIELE

[6] = minimal alterations in cell morphology after 24 hr incubation
[7] = read-out: Antiviral EC50 Influenza A/H1N1 CPE
[8] = read-out: Antiviral EC50 Influenza A/H1N1 MTS
[9] = MDCK, minimal alterations in cell morphology after 72 hr

Row | SMILES | Activity against A/HK/7/87 EC99 [1] | EC50 [3, 7] | EC50 [3, 8] | Cytotoxicity at 72 hr MCC (minimum cytotoxic concentration) ([4]; dog) | other results
1 | C1CCC23CC45CNCC4(CC2(C1)C5)C3.O=C(O)C(O)C(O)C(=O)O [Compound 14d, 12-Azapentacyclo[6.5.1.1^3,10.0^1,10.0^3,8]pentadecane (2R,3R)-tartrate] | >10 µM | > 100 µM | > 100 µM | – | EC90 [1]: < 1 µM; Cytotoxicity at 24 hr MCC [2, 6]: >50 µM; Cytotoxicity at 72 hr MCC (minimum cytotoxic concentration) [4, 9]: 4.0 µM
2 | CC12CC34CNCC3(C1)CC2(C)C4.Cl [Compound 14a, 7,8-Dimethyl-3-azatetracyclo[5.2.1.1^5,8.0^1,5]undecane hydrochloride] | – | > 100 µM | > 100 µM | 100 µM | –
3 | CN1CC23CC4CC2(CC4C3)C1.Cl [Compound 15b, 3-Methyl-3-azatetracyclo[5.2.1.1^5,8.0^1,5]undecane hydrochloride] | – | > 100 µM | > 100 µM | ≥100 µM | –
4 | CC(N)C12CC3CC(CC(C3)C1)C2 (centres unmarked) [Rimantadine, rimantadine, reference compound] | >4 µM | – | – | – | Cytotoxicity at 24 hr MCC [2, 6]: ≥500 µM; Cytotoxicity at 72 hr MCC (minimum cytotoxic concentration) [4, 9]: 500 µM
5 | NC12CC3CC(CC(C3)C1)C2 [Amantadine, amantadine, reference compound] | – | – | – | – | Activity against A/HK/7/87 EC99 ([1]; listed as Amt): ~ 1 μM
6 | NC12C3CCC4C3C3C(CCC31)C42 [Compound 8] | – | – | – | – | Activity against the wt A/M2 channel (in words) [5]: did not inhibit
7 | CC12CC34CN(C(=N)N)CC3(C1)CC2(C)C4.Cl [Compound 16a, 3-Amidino-7,8-dimethyl-3-azatetracyclo[5.2.1.1^5,8.0^1,5]undecane hydrochloride] | 0.79 µM | > 100 µM | > 100 µM | 4 µM | EC90 [1]: < 1 µM; Cytotoxicity at 24 hr MCC ([2]; dog): >50 µM
8 | C1=CC2C3C4C5C=CC4C24CNCC54C13 [Compound 10] | – | – | – | – | Activity against the wt A/M2 channel (in words) [5]: promising activity
9 | C1NCC23CC4CC12CC4C3.Cl [Compound 14b, 3-azatetracyclo[5.2.1.1^5,8.0^1,5]undecane hydrochloride] | – | > 100 µM | > 100 µM | 100 µM | –
10 | NC(=O)c1ncn([C@@H]2O[C@H](CO)[C@@H](O)[C@H]2O)n1 [Ribavirin, reference compound] | 11 µM | – | – | – | Cytotoxicity at 24 hr MCC ([2]; dog): >100 µM
11 | CN1CC23CC4(C)CC2(C1)CC4(C)C3.Cl [Compound 15a, 3,7,8-Trimethyl-3-azatetracyclo[5.2.1.1^5,8.0^1,5]undecane hydrochloride] | – | > 100 µM | > 100 µM | ≥20 µM | –
12 | NCC12C3CCC4C3C3C(CCC31)C42 [Compound 9] | – | – | – | – | Activity against the wt A/M2 channel (in words) [5]: did not inhibit
13 | C1C2C1C1C3C4C5C6CC6C4C14CNCC54C23 (centres unmarked) [Compound 11] | – | – | – | – | Activity against the wt A/M2 channel (in words) [5]: promising activity
14 | Cl.N=C(N)N1CC23CC4CC2(CC4C3)C1 [Compound 16b, 3-Amidino-3-azatetracyclo[5.2.1.1^5,8.0^1,5]undecane hydrochloride] | ≥38 µM | > 50 µM | > 50 µM | – | Cytotoxicity at 24 hr MCC ([2]; dog): >50 µM
15 | Cl.N=C(N)N1CC23CC45CCCCC4(C2)CC3(C1)C5 [Compound 16d, 12-Amidino-12-azapentacyclo[6.5.1.1^3,10.0^1,10.0^3,8]pentadecane hydrochloride] | >2 µM | > 100 µM | > 100 µM | 4.0 µM | EC90 [1]: < 1 µM; Cytotoxicity at 24 hr MCC ([2]; dog): ≥10 µM
